# Data: patent publication US20140242180A1, “NANOPARTICLES FOR CONTROLLING BLEEDING AND DRUG DELIVERY” (CASE WESTERN RESERVE UNIVERSITY, priority 2011, published 2014)
# Entries after “also recorded” stand apart in the source; their conditions may differ.
# System: activated platelets
# Assay: in vitro screening of activated labeled platelets binding to polymer-modified surfaces
# Type: cell-based
# Conditions: preliminary work; PEG 4600
# Text: An in vitro system was developed for high throughput screening of the coagulation efficiency of the synthetic platelets with the platelets labeled using CellTracker green following to facilitate ease of analysis. Essentially, this assay involves activating platelets which have been previously labeled with CellTracker and looking at the number that bind to surfaces modified with a polymer systems under agitation. This assay was validated with collagen. This system allowed one to efficiently and independently vary the PEG molecular weight and RGD motif (i.e. RGD, RGDS, and GRGDS).
substance,measurement,value
GRGDS [GRGDS peptide],adhesion and aggregation of activated platelets,efficient adhesion and aggregation; also recorded: good binding and adhesion
